Results reported in ChEMBL document CHEMBL5537154, “Smart glypican-3-targeting peptide-chlorin e6 conjugates for targeted photodynamic therapy of hepatocellular carcinoma” (Eur J Med Chem, 2024).
Calls of active or inactive are those of the source. The calls are words filed in the database; no cut-off is given here. Peptide text beside a SMILES is read from it.

Tests used:
[1] = Toxicity in BALB/C nude mouse model xenografted with human HepG2 cells assessed as change in heart weight at 1 to 2 uM/kg, iv administered every two days for 21 days along with 250 mW/cm2 light irradiation at 660 nm for 10 mins at 1 hr post-compound administration; type: organism-based; settings: in vivo, 505.17 h, dose 1-2 µM/Kg, time 505.166 hrs
HepG2 [2] = test: Induction of apoptosis in human HepG2 cells assessed as necrotic cells at 2.5 uM incubated for 24 hrs followed by 10 J/cm2 of light irradiation at 660 nm measured after 24 hrs by Annexin V-FITC/PI staining based flow cytometry relative to control; type: functional; settings: time 48 hrs
HepG2 [3] = test: Induction of ROS generation in human HepG2 cells at 10 uM preincubated for 24 hrs followed by DCFH-DA probe addition and further incubated under dark condition for 20 mins prior and 20 mins post- light irradiation of 10 J/cm2 at 660 nm by flow cytometry; type: functional, cell-based; settings: time 24.66 hrs
[4] = […] assessed as decrease in fluorescence intensity of DMA; type: functional
HepG2 [5] = test: Induction of apoptosis in human HepG2 cells assessed as early apoptotic cells at 5 uM incubated for 24 hrs followed by 10 J/cm2 of light irradiation at 660 nm measured after 24 hrs by Annexin V-FITC/PI staining based flow cytometry relative to control; type: functional; settings: time 48 hrs
HepG2 [6] = test: Induction of apoptosis in human HepG2 cells assessed as necrotic cells under dark condition at 5 uM incubated for 24 hrs by Annexin V-FITC/PI staining based flow cytometry relative to control; type: functional
HepG2 [7] = test: Induction of cell cycle arrest at S phase in human HepG2 cells at 1 uM under 10 J/cm2 light irradiation at 660 nm by flow cytometry relative to control; type: functional
HepG2 [8] = test: Induction of apoptosis in human HepG2 cells assessed as late apoptotic cells at 5 uM incubated for 24 hrs followed by 10 J/cm2 of light irradiation at 660 nm measured after 24 hrs by Annexin V-FITC/PI staining based flow cytometry relative to control; type: functional; settings: time 48 hrs
[9] = Toxicity in BALB/C nude mouse model xenografted with human HepG2 cells assessed as change in lung weight at 1 to 2 uM/kg, iv administered every two days for 21 days along with 250 mW/cm2 light irradiation at 660 nm for 10 mins at 1 hr post-compound administration; type: organism-based; settings: in vivo, 505.17 h, dose 1-2 µM/Kg, time 505.166 hrs
[10] = Toxicity in BALB/C nude mouse model xenografted with human HepG2 cells assessed as damage in kidney at 1 to 2 uM/kg, iv administered every two days for 21 days along with 250 mW/cm2 light irradiation at 660 nm for 10 mins at 1 hr post-compound administration by H and E staining based analysis; type: organism-based; settings: in vivo, 505.17 h, dose 1-2 µM/Kg, time 505.166 hrs
[11] = Drug distribution in tumor of BALB/C nude mouse model xenografted with human HepG2 cells administered intravenously measured after 2 hrs by fluorescence spectrophotometry; type: ADME, tissue-based, Neoplasm; settings: in vivo, iv, dose 1-2 µM/Kg
[12] = Photostability of compound under 250 mW/cm2 light irradiation at 660 nm incubated for 10 mins by UV spectrophotometry; type: physicochemical; settings: 0.66 µM
HepG2 [13] = test: Induction of apoptosis in human HepG2 cells assessed as necrotic cells at 5 uM incubated for 24 hrs followed by 10 J/cm2 of light irradiation at 660 nm measured after 24 hrs by Annexin V-FITC/PI staining based flow cytometry relative to control; type: functional; settings: time 48 hrs
HepG2 [14] = test: Induction of apoptosis in human HepG2 cells assessed as late apoptotic cells at 2.5 uM incubated for 24 hrs followed by 10 J/cm2 of light irradiation at 660 nm measured after 24 hrs by Annexin V-FITC/PI staining based flow cytometry relative to control; type: functional; settings: time 48 hrs
[15] = Drug uptake in lysosome of human HepG2 cells assessed as pearsons co-efficient of lyso tracker green DND-26-yellow signal at 2 uM incubated for 24 hrs by laser confocal microscopy; type: ADME, subcellular; settings: hepg2, 24 h
[16] = Partition coefficient, logP of compound; type: physicochemical; settings: octanol/water
[17] = Drug distribution in liver of BALB/C nude mouse model xenografted with human HepG2 cells at 1 to 2 uM/kg, iv measured for 1 to 4 hrs by fluorescence imaging analysis; type: ADME, organism-based; settings: in vivo, dose lower 1 µM/Kg, time lower 1 hrs, dose upper 2 µM/Kg, time upper 4 hrs
[18] = Drug uptake in endoplasmic reticulum of human HepG2 cells assessed as pearsons co-efficient of ER tracker green-yellow signal at 2 uM incubated for 24 hrs by laser confocal microscopy; type: ADME, subcellular; settings: hepg2, 24 h
Huh-7 = test: Antiproliferative activity against human Huh-7 cells under 10 J/cm2 light irradiation at 660 nm by CCK8 assay; type: functional, cell-based; settings: Huh-7, light or radiation study
[19] = Toxicity in BALB/C nude mouse model xenografted with human HepG2 cells assessed as body weight loss at 1 to 2 uM/kg, iv administered every two days for 21 days along with 250 mW/cm2 light irradiation at 660 nm for 10 mins at 1 hr post-compound administration; type: organism-based; settings: in vivo, 505.17 h, dose 1-2 µM/Kg, time 505.166 hrs
HepG2 [20] = test: Induction of apoptosis in human HepG2 cells assessed as late apoptotic cells under dark condition at 2.5 uM incubated for 24 hrs by Annexin V-FITC/PI staining based flow cytometry relative to control; type: functional
[21] = Drug distribution in tumor of BALB/C nude mouse model xenografted with human HepG2 cells at 1 to 2 uM/kg, iv measured for 1 to 4 hrs by fluorescence imaging analysis; type: ADME, organism-based, Neoplasm; settings: in vivo, dose lower 1 µM/Kg, time lower 1 hrs, dose upper 2 µM/Kg, time upper 4 hrs
chymotrypsin = chymotrypsin (Homo sapiens, UniProt P17538+P40313+Q6GPI1+Q99895); test: Stability of compound assessed as chymotrypsin (unknown origin)-mediated compound degradation in PBS at pH 7.4 by measuring half life; type: ADME, protein assay
[22] = Toxicity in BALB/C nude mouse model xenografted with human HepG2 cells assessed as damage in liver at 1 to 2 uM/kg, iv administered every two days for 21 days along with 250 mW/cm2 light irradiation at 660 nm for 10 mins at 1 hr post-compound administration by H and E staining based analysis; type: organism-based; settings: in vivo, 505.17 h, dose 1-2 µM/Kg, time 505.166 hrs
Glypican-3 = Glypican-3 (Homo sapiens, UniProt P51654); test: Binding affinity to GPC3 (unknown origin) assessed as dissociation constant by fluorescence polarization assay
Glypican-3, sequence (P51654 25-358 limits assumed): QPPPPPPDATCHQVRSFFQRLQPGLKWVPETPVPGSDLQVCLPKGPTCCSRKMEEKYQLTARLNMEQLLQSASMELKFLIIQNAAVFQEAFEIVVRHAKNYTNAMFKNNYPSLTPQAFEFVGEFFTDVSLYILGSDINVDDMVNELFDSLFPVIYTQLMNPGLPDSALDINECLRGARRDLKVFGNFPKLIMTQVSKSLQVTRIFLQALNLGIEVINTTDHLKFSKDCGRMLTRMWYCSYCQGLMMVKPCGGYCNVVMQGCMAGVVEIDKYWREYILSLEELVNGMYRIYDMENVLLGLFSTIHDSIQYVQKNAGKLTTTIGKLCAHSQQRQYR
Glypican-3, sequence (P51654 359-554 limits assumed): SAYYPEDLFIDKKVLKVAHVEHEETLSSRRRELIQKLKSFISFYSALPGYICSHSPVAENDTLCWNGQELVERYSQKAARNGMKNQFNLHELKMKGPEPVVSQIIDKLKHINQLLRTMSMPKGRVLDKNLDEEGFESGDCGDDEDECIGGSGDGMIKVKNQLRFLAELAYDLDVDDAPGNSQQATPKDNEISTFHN

HepG2 [23] = test: Induction of apoptosis in human HepG2 cells assessed as early apoptotic cells under dark condition at 5 uM incubated for 24 hrs by Annexin V-FITC/PI staining based flow cytometry relative to control; type: functional
HepG2 [24] = test: Induction of apoptosis in human HepG2 cells assessed as early apoptotic cells at 2.5 uM incubated for 24 hrs followed by 10 J/cm2 of light irradiation at 660 nm measured after 24 hrs by Annexin V-FITC/PI staining based flow cytometry relative to control; type: functional; settings: time 48 hrs
HepG2 [25] = test: Induction of ROS generation in human HepG2 cells at 10 uM incubated for 24 hrs by DCFH-DA probe based flow cytometry; type: functional, cell-based
[26] = Drug uptake in lysosome of human Huh-7 cells at 2 uM incubated for 24 hrs by lyso tracker green DND-26 probe based laser confocal microscopy; type: ADME, subcellular; settings: huh-7, 24 h
[27] = Drug uptake in human HUVEC cells at 500 nM incubated for 0.5 hrs by flow cytometry; type: ADME, cell-based; settings: 0.5 µM
HepG2 [28] = test: Induction of cell cycle arrest at S phase in human HepG2 cells at 1 uM by flow cytometry relative to control; type: functional

C=Cc1c(C)c2cc3nc(c(CC(=O)O)c4[nH]c(cc5nc(cc1[nH]2)C(C)=C5CC)c(C)c4C(=O)NCCCC(=O)N[C@@H](CC(=O)O)C(=O)N[C@@H](Cc1cnc[nH]1)C(=O)N[C@@H](CC(C)C)C(=O)N[C@@H](C)C(=O)N[C@@H](CO)C(=O)N[C@@H](CC(C)C)C(=O)N[C@@H](Cc1c[nH]c2ccccc12)C(=O)N[C@@H](Cc1c[nH]c2ccccc12)C(=O)NCC(=O)N[C@H](C(=O)N[C@@H](CCC(=O)O)C(=O)N[C@@H](CC(C)C)C(=O)O)[C@@H](C)O)[C@@H](CCC(=O)O)[C@@H]3C (HELM PEPTIDE1{[C=Cc1c(C)c2cc3nc(c(CC(=O)O)c4[nH]c(cc5nc(cc1[nH]2)C(C)=C5CC)c(C)c4C(=O)[*:2])[C@@H](CCC(=O)O)[C@@H]3C].[O=C(CCCN[*:1])[*:2]].D.H.L.A.S.L.W.W.G.T.E.L}$$$$V2.0)
Activity [1]: Non-Toxic | Activity (HepG2 [2]): 74% | Activity (HepG2 [3]): Active | Activity [4]: Active | Activity (HepG2 [5]): 8.4% | Activity (HepG2 [6]): 0.1% | Activity (HepG2 [7]): 27.7% | Activity (HepG2 [8]): 9.3% | Activity [9]: Non-Toxic | Activity [10]: Non-Toxic | Drug uptake [11]: Dose-Dependent Effect | Stability [12]: Stable | Activity (HepG2 [13]): 15.3% | Activity (HepG2 [14]): 17.8% | Activity [15]: 0.79 | logP [16]: 1.8 | Drug uptake [17]: Not Active | Activity [18]: 0.65 | IC50 (Huh-7): 2400 nM | Activity [19]: Non-Toxic | Activity (HepG2 [20]): 2% | Drug uptake [21]: Active | half-life (chymotrypsin): 7.6 h | Activity [22]: Non-Toxic | Kd (Glypican-3): 380 nM | Activity (HepG2 [23]): 2.3% | Activity (HepG2 [24]): 0.1% | Activity (HepG2 [25]): inactive | Drug uptake [26]: Active | Drug uptake [27]: Not Active | Activity (HepG2 [28]): 21.8%
